Laboratory results published in publication PMC6150735, “Molecular Docking-Based Design and Development of a Highly Selective Probe Substrate for UDP-glucuronosyltransferase 1A10” (Molecular Pharmaceutics, 2018).

Key:
[1] = target: T1, UGT1A10 mutant 1A10-H210M (Homo sapiens, UniProt Q9HAW8, H210M); assay: Glucuronidation kinetics by UGT1A10 mutant 1A10-H210M (fluorescence decrease, 96-well plate); format: biochemical; conditions: mutant versus wild-type UGT1A10
T1 construct: His-tag; made in house; host or cells: baculovirus-infected SF9 insect cells
T1 sequence (Q9HAW8 26-530 H210M): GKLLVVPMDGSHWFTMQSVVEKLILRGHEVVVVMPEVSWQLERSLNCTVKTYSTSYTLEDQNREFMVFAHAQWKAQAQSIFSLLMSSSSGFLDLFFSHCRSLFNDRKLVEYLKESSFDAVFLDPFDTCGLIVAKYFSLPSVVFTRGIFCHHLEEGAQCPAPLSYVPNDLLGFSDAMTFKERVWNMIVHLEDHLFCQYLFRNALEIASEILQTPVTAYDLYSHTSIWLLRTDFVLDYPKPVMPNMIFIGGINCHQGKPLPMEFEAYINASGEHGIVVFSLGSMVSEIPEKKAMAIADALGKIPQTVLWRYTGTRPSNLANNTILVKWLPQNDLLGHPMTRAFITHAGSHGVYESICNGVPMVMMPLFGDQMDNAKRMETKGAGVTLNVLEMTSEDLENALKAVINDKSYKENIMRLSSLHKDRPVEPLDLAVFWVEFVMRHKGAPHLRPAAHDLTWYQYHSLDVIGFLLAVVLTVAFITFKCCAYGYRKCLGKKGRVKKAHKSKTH
Method: The UGT1A10 mutant 1A10-H210 M was prepared according to the QuikChange methodology, using the cloned UGT1A10 in pFastBac[42] as a template and the following two oligonucleotides:
The entire coding sequence of UGT1A10 in the mutant clone was sequenced, and subsequently, recombinant baculovirus was prepared and used to express the mutant enzyme in baculovirus-infected SF9 insect cells.
The incubation mixtures for glucuronidation assays contained 100 mM Tris-HCl buffer pH 7.4, 2.5 mM MgCl2, 0.5 mM UDPGA, recombinant UGT, or microsomes as the enzyme source and 0–15 μM of the test aglycone substrate. When the incubation mixtures contained microsomes, alamethicin was used at a final concentration of 12.5 μg/mL, but it was not included in the recombinant enzyme assays.[43] In the first experiments three negative control samples were tested, namely (i) without the substrate 7-hydroxycoumarin derivative, (ii) without the cofactor UDPGA, or (iii) without the enzyme source. In subsequent experiments, the control samples lacked the enzyme source since it gave the highest fluorescence background. […] Fluorescence spectra (excitation 200–420 nm; emission 400–600 nm) or fluorescence decrease at 390 nm excitation and 460 nm emission, were measured in these preliminary experiments, using a Shimadzu RF-5000 spectrophotofluorometer.
Most of the glucuronidation assays were carried out in 96 multiwell plate format, and incubations were carried out in 100 μL and at 37 °C, in the presence of Tris–HCl buffer pH 7.4, UDPGA, and the tested 7-hydroxycoumarin derivative, at the indicated concentrations. Fluorescence decline in the multiwell plate experiments was monitored every other minute, for 40 min, using an excitation filter at 405 nm and detection at 460 nm, in a Victor2 1420 Multilabel counter (PerkinElmer, Life Sciences, Turku, Finland). The fluorescence values were transformed into molarity using the aglycone substrates for making the respective standard curves. […] Enzyme catalyzed glucuronidation rate was calculated by subtracting the blank value from the full reaction value. […]

[2] = Absorbance spectra of coumarin derivatives; format: physicochemical; conditions: 10 μM, 100 mM Tris–HCl pH 7.4, 10% dimethyl sulfoxide
Method: The absorbance spectra of 10 μM coumarin derivatives at 100 mM Tris–HCl pH 7.4 containing 10% dimethyl sulfoxide were measured using a Hitachi U-2000 Spectrophotometer (Tokyo, Japan). Excitation and emission fluorescence spectra of 0.1 μM coumarin derivatives in 100 mM Tris-HCl pH 7.4 were measured using a Shimadzu RF-5000 spectrophotofluorometer (Tokyo, Japan). The excitation spectra was from 200 to 420 at 460 nm emission and the emission spectra was from 400 to 600 at 390 nm excitation (data in Supplementary Table S1 and Figures S1 and S2). The effect of pH on fluorescence intensity was determined at 405 nm excitation and 460 nm emission, in the presence of 1.5% trichloroacetic acid, 100 mM phosphate buffers at pH 5, 6, 7, 8, and 9, or 1.6 M glycine–NaOH pH 10.4.

human UGTs = assay: Recombinant human UGT screen: glucuronidation rates across human UGTs; format: biochemical; conditions: 10 μM aglycone; other UGTs at very low rates
Method: Recombinant human UGTs 1A1, 1A3, 1A6, 1A7, 1A8, 1A9, 1A10, 2A1, 2A2, 2A3, 2B4, 2B10, 2B7, and 2B17 were produced, as His-tagged proteins, in baculovirus-infected insect cells as previously described.[37]−[39] The relative expression level of each of these recombinant UGTs was evaluated by immunodetection, using monoclonal antibody against the His-tag, as described elsewhere.[40] A numeric value of 1.0 was given to the expression level of UGT1A8 and the relative expression level of each of the other UGTs was related to this value. Normalized activities were obtained by dividing the glucuronidation rate values by the relative expression level of the tested UGT. In addition, UGTs 1A4, 2B10, and 2B15 were purchased from Corning Life Sciences (New York) and are marked, in Figure 5, with a “C” to indicate that they are commercial enzymes. The expression levels of the UGTs in the commercial samples could not be determined, so their protein concentration was used to calculate the reaction rate.
(§1) The incubation mixtures for glucuronidation assays contained 100 mM Tris-HCl buffer pH 7.4, 2.5 mM MgCl2, 0.5 mM UDPGA, recombinant UGT, or microsomes as the enzyme source and 0–15 μM of the test aglycone substrate. When the incubation mixtures contained microsomes, alamethicin was used at a final concentration of 12.5 μg/mL, but it was not included in the recombinant enzyme assays.[43] In the first experiments three negative control samples were tested, namely (i) without the substrate 7-hydroxycoumarin derivative, (ii) without the cofactor UDPGA, or (iii) without the enzyme source. In subsequent experiments, the control samples lacked the enzyme source since it gave the highest fluorescence background. Preliminary experiments were done under different conditions than most of the later assays, namely in 2.5 mL of 100 mM phosphate buffer pH 7.4, containing 500 μg pig liver microsomes, 1.0 μM compound 6 and 0.5 mM UDPGA, at room temperature. Fluorescence spectra (excitation 200–420 nm; emission 400–600 nm) or fluorescence decrease at 390 nm excitation and 460 nm emission, were measured in these preliminary experiments, using a Shimadzu RF-5000 spectrophotofluorometer.
(§2) Most of the glucuronidation assays were carried out in 96 multiwell plate format, and incubations were carried out in 100 μL and at 37 °C, in the presence of Tris–HCl buffer pH 7.4, UDPGA, and the tested 7-hydroxycoumarin derivative, at the indicated concentrations. Fluorescence decline in the multiwell plate experiments was monitored every other minute, for 40 min, using an excitation filter at 405 nm and detection at 460 nm, in a Victor2 1420 Multilabel counter (PerkinElmer, Life Sciences, Turku, Finland). The fluorescence values were transformed into molarity using the aglycone substrates for making the respective standard curves. Slopes of the substrate concentration decrease per minute were calculated using linear regression analysis, in which the linear part of the kinetic assay indicated the glucuronidation rate. Enzyme catalyzed glucuronidation rate was calculated by subtracting the blank value from the full reaction value. The intra-assay variability of the kinetic assays was 6% when compound 6 was used as the aglycone substrate. Kinetic analyses were also performed in the same 96 multiwell plates format, with excitation filter at 405 nm and detection at 460 nm, using 6–8 different substrate concentrations per substrate and two different protein concentrations for both the wild-type and mutant UGT1A10. The higher concentrations, 13.5 mg/L for UGT1A10 and 12.0 mg/L for the UGT1A10 mutant, were used when the substrates were HFC, compounds 4 and 6, whereas the lower protein concentrations, 6.75 and 6.0 mg/L for UGT1A10 and the mutant, respectively, were used when the substrates were compounds 1, 2, 3, and 5.

[3] = system: human intestinal microsomes (HIM); assay: Glucuronidation by human intestinal microsomes (HIM); format: in vitro ADME
Method: (§3) A commercial HLM pool (cat no:452210, BD Gentest, Bedford, MA) and human intestine microsomes (HIM) pool (lot. no 1110189, XenoTech, Kansas City, KS) were purchased. Pig liver samples were prepared from untreated female pigs that were used for practicing surgical procedures at the University of Kuopio (currently: University of Eastern Finland, Kuopio campus). Other animal liver microsomes were prepared as described previously.[41] The Ethics Committee for Animal Experiments, University of Kuopio, approved these experiments.
as §1, §2

[4] = as above; format: in vitro ADME; conditions: human, pooled human intestinal microsomes (HIM), pH 7.4
Method: as §3, §1, §2

Change of Km by the H210M mutation (in words) [1]: considerably increased | Amax [2]: 392 nm | ε abs [2]: 20 500 cmx1*Mx1 | Effect of adding albumin on Km and Vmax ([3]; intestinal microsomes, albumin in incubation mixture): increased both Km and Vmax values | Km [4]: 12 µM
SMILES: O=c1oc2cc(O)ccc2cc1-n1cncn1 [Compound 6, 7-Hydroxy-3-(1H-1,2,4-triazol-1-yl)-2H-chromen-2-one]
Selectivity among human UGTs (human UGTs): selective for UGT1A10 | Vmax ([3]; human intestinal microsomes): 3.5 (2.9–4.0) μmol/(min * g prot)
